From patent US9695155B2, “Herbicidal substituted pyrimidinyloxy benzene compounds” (E. I. DU PONT DE NEMOURS AND COMPANY, priority 2013, dated 2017)

How the values were obtained:
galium = test: Test D preemergence; format: in vivo, Galium aparine
From the text: (§1) Seeds of plant species selected from bluegrass (annual bluegrass, Poa annua), blackgrass (Alopecurus myosuroides), canarygrass (littleseed canarygrass, Phalaris minor), chickweed (common chickweed, Stellaria media), galium (catchweed bedstraw, Galium aparine), bromegrass, downy (downy bromegrass, Bromus tectorum), field poppy (Papaver rhoeas), field violet (Viola arvensis), green foxtail (Setaria viridis), deadnettle (henbit deadnettle, Lamium amplexicaule), Italian ryegrass (Lolium multiflorum), kochia (Kochia scoparia), lambsquarters (Chenopodium album), oilseed rape (Brassica napus), pigweed (Amaranthus retroflexus), chamomile (scentless chamomile, Matricaria inodora), Russian thistle (Salsola kali), speedwell (bird's-eye speedwell, Veronica persica), spring barley (Hordeum vulgare), spring wheat (Triticum aestivum), wild buckwheat (Polygonum convolvulus), wild mustard (Sinapis arvensis), wild oat (Avena fatua), wild radish (Raphanus raphanistrum), windgrass (Apera spica-venti), winter barley (Hordeum vulgare), and winter wheat (Triticum aestivum) were planted into a silt loam soil and treated preemergence with test chemicals formulated in a non-phytotoxic solvent mixture which included a surfactant.
(§2) At the same time, these species were planted in pots containing Redi-Earth® planting medium (Scotts Company, 14111 Scottslawn Road, Marysville, Ohio 43041) comprising spaghnum peat moss, vermiculite, wetting agent and starter nutrients and treated with postemergence applications of the test chemicals formulated in the same manner. Plants ranged in height from 2 to 18 cm (1- to 4-leaf stage). Treated plants and controls were maintained in a controlled growth environment for 7 to 21 days after which time all species were compared to controls and visually evaluated. Plant response ratings, summarized in Table D, are based on a scale of 0 to 100 where 0 is no effect and 100 is complete control. A dash (-) response means no test result.

windgrass = test: Test D postemergence; format: in vivo, Apera spica-venti
From the text: as §1, §2

field poppy [1] = test: Test D postemergence; format: in vivo, Papaver rhoeas
From the text: as §1, §2

pigweed = test: Test D preemergence; format: in vivo, Amaranthus retroflexus
From the text: as §1, §2

canarygrass = test: Test D postemergence; format: in vivo, Phalaris minor
From the text: as §1, §2

field poppy [2] = test: Test D preemergence; format: in vivo, Papaver rhoeas
From the text: as §1, §2

oilseed rape = test: Test D postemergence; format: in vivo, Brassica napus
From the text: as §1, §2

spring barley = test: Test D preemergence; format: in vivo, Hordeum vulgare
From the text: as §1, §2

winter barley = test: Test D preemergence; format: in vivo, Hordeum vulgare
From the text: as §1, §2

[3] = 16 g ai/ha, scale 0 (no effect) to 100 (complete control)
[4] = 31 g ai/ha, scale 0 to 100 (0 no effect, 100 complete control)
[5] = 62 g ai/ha, scale 0 to 100 (0 no effect, 100 complete control)
[6] = 125 g ai/ha, scale 0 to 100 (0 no effect, 100 complete control)
[7] = 250 g ai/ha, scale 0 to 100 (0 no effect, 100 complete control)

`Clc1cnc(Oc2ccccc2-n2cc(Cl)cn2)nc1` [Compound 3] was tested, and the “Plant response rating, Galium” value (galium; [3]) was 0, the “Plant response rating, Galium” value (galium; 31 g ai/ha, scale 0-100) was 0 and the “Plant response rating, Galium” value (galium; 62 g ai/ha, scale 0-100) was 10. The “Plant response rating, Galium” value (galium; 125 g ai/ha, scale 0-100) was 70, the “Plant response rating, Galium” value (galium; 250 g ai/ha, scale 0-100) was 100 and the “Plant response rating, Windgrass” value (windgrass; 16 g ai/ha, scale 0-100) was 70. The “Plant response rating, Windgrass” value (windgrass; [4]) was 0, the “Plant response rating, Windgrass” value (windgrass; [5]) was 0 and the “Plant response rating, Windgrass” value (windgrass; [6]) was 0. For the same compound, the “Plant response rating, Windgrass” value (windgrass; [7]) was 10, the “Plant response rating, Field Poppy” value (field poppy [1]; 16 g ai/ha, scale 0-100) was 10 and the “Plant response rating, Field Poppy” value (field poppy [1]; [4]) was 0. The “Plant response rating, Field Poppy” value (field poppy [1]; [5]) was 0, the “Plant response rating, Field Poppy” value (field poppy [1]; [7]) was 0 and the “Plant response rating, Pigweed” value (pigweed; [3]) was 0. The “Plant response rating, Pigweed” value (pigweed; 31 g ai/ha, scale 0 (no effect) to 100 (complete control)) was 0, the “Plant response rating, Pigweed” value (pigweed; 62 g ai/ha, scale 0-100) was 40 and the “Plant response rating, Pigweed” value (pigweed; 125 g ai/ha, scale 0-100) was 80. The “Plant response rating, Pigweed” value (pigweed; 250 g ai/ha, scale 0-100) was 100, the “Plant response rating, Canarygrass” value (canarygrass; 16 g ai/ha, scale 0-100) was 30 and the “Plant response rating, Canarygrass” value (canarygrass; [4]) was 0. For the same compound, the “Plant response rating, Canarygrass” value (canarygrass; [5]) was 0, the “Plant response rating, Canarygrass” value (canarygrass; [6]) was 0 and the “Plant response rating, Canarygrass” value (canarygrass; [7]) was 10. The “Plant response rating, Field Poppy” value (field poppy [2]; [3]) was 40, the “Plant response rating, Field Poppy” value (field poppy [2]; 62 g ai/ha, scale 0-100) was 40 and the “Plant response rating, Field Poppy” value (field poppy [2]; 125 g ai/ha, scale 0-100) was 70. For the same compound, the “Plant response rating, Field Poppy” value (field poppy [2]; 250 g ai/ha, scale 0-100) was 80, the “Plant response rating, Oilseed Rape” value (oilseed rape; 16 g ai/ha, scale 0-100) was 90 and the “Plant response rating, Oilseed Rape” value (oilseed rape; [4]) was 80. For the same compound, the “Plant response rating, Oilseed Rape” value (oilseed rape; [5]) was 80, the “Plant response rating, Oilseed Rape” value (oilseed rape; [6]) was 90 and the “Plant response rating, Oilseed Rape” value (oilseed rape; [7]) was 95. The “Plant response rating, Barley, Spring” value (spring barley; [3]) was 0, the “Plant response rating, Barley, Spring” value (spring barley; 31 g ai/ha, scale 0-100) was 0 and the “Plant response rating, Barley, Spring” value (spring barley; 62 g ai/ha, scale 0-100) was 0. The “Plant response rating, Barley, Spring” value (spring barley; 125 g ai/ha, scale 0-100) was 0, the “Plant response rating, Barley, Spring” value (spring barley; 250 g ai/ha, scale 0-100) was 0 and the “Plant response rating, Barley, Winter” value (winter barley; [3]) was 0. For the same compound, the “Plant response rating, Barley, Winter” value (winter barley; 31 g ai/ha, scale 0-100) was 0, the “Plant response rating, Barley, Winter” value (winter barley; 62 g ai/ha, scale 0-100) was 0 and the “Plant response rating, Barley, Winter” value (winter barley; 125 g ai/ha, scale 0-100) was 10. For the same compound, the “Plant response rating, Barley, Winter” value (winter barley; 250 g ai/ha, scale 0-100) was 20.
For `Fc1cccc(Oc2ncc(Cl)cn2)c1-n1cc(Br)cn1` [Compound 178, 2-[2-(4-bromo-1H-pyrazol-1-yl)-3-fluorophenoxy]-5-chloropyrimidine], the pest or weed control at 16 g/ha (galium; Galium, pre-emergence, 16 g ai/ha, scale 0 (no effect) to 100 (complete control), read-out: Plant response rating, Galium) was 10%, the pest or weed control at 31 g/ha (galium; Galium, pre-emergence, 31 g ai/ha, scale 0-100, read-out: Plant response rating, Galium) was 30% and the pest or weed control at 62 g/ha (galium; Galium, pre-emergence, 62 g ai/ha, scale 0-100, read-out: Plant response rating, Galium) was 45%. It also gave a pest or weed control at 125 g/ha (galium; Galium, pre-emergence, 125 g ai/ha, scale 0-100, read-out: Plant response rating, Galium) of 60%, a pest or weed control at 16 g/ha (windgrass; Apera spica-venti, post-emergence, 16 g ai/ha, scale 0-100, read-out: Plant response rating, Windgrass) of 5% and a pest or weed control at 31 g/ha (windgrass; Apera spica-venti, post-emergence, 31 g ai/ha, scale 0 to 100 (0 no effect, 100 complete control), read-out: Plant response rating, Windgrass) of 10%. For the same compound, the pest or weed control at 62 g/ha (windgrass; Apera spica-venti, post-emergence, 62 g ai/ha, scale 0 to 100 (0 no effect, 100 complete control), read-out: Plant response rating, Windgrass) was 15%, the pest or weed control at 125 g/ha (windgrass; Apera spica-venti, post-emergence, 125 g ai/ha, scale 0 to 100 (0 no effect, 100 complete control), read-out: Plant response rating, Windgrass) was 20% and the pest or weed control at 16 g/ha (field poppy [1]; Papaver rhoeas, post-emergence, 16 g ai/ha, scale 0-100, read-out: Plant response rating, Field Poppy) was 45%. For the same compound, the pest or weed control at 31 g/ha (field poppy [1]; Papaver rhoeas, post-emergence, 31 g ai/ha, scale 0 to 100 (0 no effect, 100 complete control), read-out: Plant response rating, Field Poppy) was 55%, the pest or weed control at 62 g/ha (field poppy [1]; Papaver rhoeas, post-emergence, 62 g ai/ha, scale 0 to 100 (0 no effect, 100 complete control), read-out: Plant response rating, Field Poppy) was 65% and the pest or weed control at 125 g/ha (field poppy [1]; Papaver rhoeas, post-emergence, 125 g ai/ha, scale 0 to 100 (0 no effect, 100 complete control), read-out: Plant response rating, Field Poppy) was 75%. The pest or weed control at 16 g/ha (pigweed; Amaranthus retroflexus, pre-emergence, 16 g ai/ha, scale 0 (no effect) to 100 (complete control), read-out: Plant response rating, Pigweed) was 75%, the pest or weed control at 31 g/ha (pigweed; Amaranthus retroflexus, pre-emergence, 31 g ai/ha, scale 0 (no effect) to 100 (complete control), read-out: Plant response rating, Pigweed) was 100% and the pest or weed control at 62 g/ha (pigweed; Amaranthus retroflexus, pre-emergence, 62 g ai/ha, scale 0-100, read-out: Plant response rating, Pigweed) was 100%. The pest or weed control at 125 g/ha (pigweed; Amaranthus retroflexus, pre-emergence, 125 g ai/ha, scale 0-100, read-out: Plant response rating, Pigweed) was 100%, the pest or weed control at 16 g/ha (canarygrass; Phalaris minor, post-emergence, 16 g ai/ha, scale 0-100, read-out: Plant response rating, Canarygrass) was 5% and the pest or weed control at 31 g/ha (canarygrass; Phalaris minor, post-emergence, 31 g ai/ha, scale 0 to 100 (0 no effect, 100 complete control), read-out: Plant response rating, Canarygrass) was 15%. It also gave a pest or weed control at 62 g/ha (canarygrass; Phalaris minor, post-emergence, 62 g ai/ha, scale 0 to 100 (0 no effect, 100 complete control), read-out: Plant response rating, Canarygrass) of 20%, a pest or weed control at 125 g/ha (canarygrass; Phalaris minor, post-emergence, 125 g ai/ha, scale 0 to 100 (0 no effect, 100 complete control), read-out: Plant response rating, Canarygrass) of 35% and a pest or weed control at 16 g/ha (field poppy [2]; Papaver rhoeas, pre-emergence, 16 g ai/ha, scale 0 (no effect) to 100 (complete control), read-out: Plant response rating, Field Poppy) of 20%. For the same compound, the pest or weed control at 31 g/ha (field poppy [2]; Papaver rhoeas, pre-emergence, 31 g ai/ha, scale 0-100, read-out: Plant response rating, Field Poppy) was 70%, the pest or weed control at 62 g/ha (field poppy [2]; Papaver rhoeas, pre-emergence, 62 g ai/ha, scale 0-100, read-out: Plant response rating, Field Poppy) was 85% and the pest or weed control at 125 g/ha (field poppy [2]; Papaver rhoeas, pre-emergence, 125 g ai/ha, scale 0-100, read-out: Plant response rating, Field Poppy) was 85%. It also gave a plant injury at 16 g/ha (oilseed rape; Brassica napus, post-emergence, 16 g ai/ha, scale 0-100, read-out: Plant response rating, Oilseed Rape) of 60%, a plant injury at 31 g/ha (oilseed rape; Brassica napus, post-emergence, 31 g ai/ha, scale 0 to 100 (0 no effect, 100 complete control), read-out: Plant response rating, Oilseed Rape) of 65% and a plant injury at 62 g/ha (oilseed rape; Brassica napus, post-emergence, 62 g ai/ha, scale 0 to 100 (0 no effect, 100 complete control), read-out: Plant response rating, Oilseed Rape) of 80%. For the same compound, the plant injury at 125 g/ha (oilseed rape; Brassica napus, post-emergence, 125 g ai/ha, scale 0 to 100 (0 no effect, 100 complete control), read-out: Plant response rating, Oilseed Rape) was 90%.
